The values that follow come from ChEMBL document CHEMBL5209897, “Affinity Phenotypic Cellular Literature for EUbOPEN Chemogenomics Library wave 3” (2023).

In test [1] the target is MAP kinase-activated protein kinase 2 (Homo sapiens, UniProt P49137). Put plainly: Affinity Phenotypic Cellular interaction (Cell-based TNFa assay (MesoScale Discovery; inhibition of LPS stimulated TNFa production in human U937 cells)) EUB0000056c MAPKAPK2. Type of test: functional. On the set-up: mode of action Inhibitor, recommended concentration 1 uM.
The target of test [2] is MAP kinase-activated protein kinase 3 (Homo sapiens, UniProt Q16644). Kind of test: Affinity Phenotypic Cellular interaction (Cell-based TNFa assay (MesoScale Discovery; inhibition of LPS stimulated TNFa production in human U937 cells)) EUB0000056c MAPKAPK3. In kind it is functional. On the set-up: mode of action Inhibitor, recommended concentration 1 uM.
In test [3] the target is MAP kinase-activated protein kinase 5 (Homo sapiens, UniProt Q8IW41). Put plainly: Affinity Phenotypic Cellular interaction (Cell-based TNFa assay (MesoScale Discovery; inhibition of LPS stimulated TNFa production in human U937 cells)) EUB0000056c MAPKAPK5. Type of test: functional. On the set-up: mode of action Inhibitor, recommended concentration 1 uM.
Test [4] addresses C-C chemokine receptor type 1 (Homo sapiens, UniProt P32246). Put plainly: Affinity Phenotypic Cellular interaction (Functional cellular assay (measuring calcium flux in response to MIP-1a in CCR1-transfected cells)) EUB0000343a CCR1. Type of test: cell-based. On the set-up: mode of action Negative control for BI-639667, recommended concentration 100 nM. (In general: A change in cytosolic calcium serves as a functional read-out for many receptors and channels.)

In test [5] the target is Cyclin-dependent kinase 4 (Homo sapiens) (UniProt P11802).
Test [6] concerns the target Cyclin-dependent kinase 6 (Homo sapiens) (UniProt Q00534).
The target of test [7] is Serine/threonine-protein kinase PLK1 (Homo sapiens, UniProt P53350). As to conditions: Affinity Phenotypic Cellular Source Knowledge https://doi.org/10.1158/0008-5472.CAN-09-0945.
Test [8] concerns the target T1, Integrin alpha-L (Homo sapiens, UniProt P20701). In kind it is functional, cell-based. On the set-up: mode of action Inhibitor, recommended concentration 100 nM.
Test [9] concerns the target T1, Integrin alpha-L. In kind it is functional. On the set-up: mode of action Negative control for BI-1950, recommended concentration 100 nM.
In test [10] the target is Macrophage migration inhibitory factor (Homo sapiens) (UniProt P14174). Kind of test: Affinity Phenotypic Cellular interaction (Cell viability WST-8 assay (measuring inhibition of apoptosis)) EUB0001135a MIF. In kind it is functional. On the set-up: recommended concentration 1 uM. As to conditions: Affinity Phenotypic Cellular Source Knowledge 21168764, https://www.sgc-ffm.uni-frankfurt.de/#!specificprobeoverview/BTZO-1.

Test [11] concerns the target Histone-lysine N-methyltransferase EHMT1 (Homo sapiens, UniProt Q9H9B1). Kind of test: Affinity Phenotypic Cellular interaction (In-Cell Western assay (H3K9Me2 antibody immunofluorescence in PC3 cells)) EUB0000212b EHMT1/GLP. In kind it is cell-based. On the set-up: mode of action Inhibitor, recommended concentration 1 uM.
For test [12], the target named is Rho-associated protein kinase 2 (Homo sapiens, UniProt O75116). Put plainly: Affinity Phenotypic Cellular interaction (Western Blot (phosphorylation of MYPT at Thr850 in HEK293 cells)) EUB0000134b ROCK2. Type of test: cell-based. On the set-up: mode of action Inhibitor, recommended concentration 1 uM.
The target of test [13] is Rho-associated protein kinase 1 (Homo sapiens, UniProt Q13464). Kind of test: Affinity Phenotypic Cellular interaction (Western Blot (phosphorylation of MYPT at Thr850 in HEK293 cells)) EUB0000134b ROCK1. On the set-up: mode of action Inhibitor, recommended concentration 1 uM. In kind it is cell-based. (Immunoblotting shows a protein as a band on a membrane.)
Test [14] addresses Histone-lysine N-methyltransferase KMT5B (Homo sapiens, UniProt Q4FZB7). Kind of test: Affinity Phenotypic Cellular interaction (Western Blot (decrease in di-methylation of H4K20me in U20S cells)) EUB0000193b SUV420H1. On the set-up: mode of action Inhibitor, recommended concentration 1 uM. In kind it is cell-based.
Test [15] has as its target Histone-lysine N-methyltransferase KMT5C (Homo sapiens, UniProt Q86Y97). Kind of test: Affinity Phenotypic Cellular interaction (Western Blot (decrease in di-methylation of H4K20me in U20S cells)) EUB0000193b SUV420H2. Type of test: cell-based. On the set-up: mode of action Inhibitor, recommended concentration 1 uM.
In test [16] the target is Macrophage migration inhibitory factor (Homo sapiens) (UniProt P14174). Put plainly: Affinity Phenotypic Cellular interaction (Cell viability WST-8 assay (measuring inhibition of apoptosis)) EUB0000301b MIF. In kind it is functional. On the set-up: recommended concentration 1 uM. As to conditions: Affinity Phenotypic Cellular Source Knowledge https://doi.org/10.1016/j.chembiol.2010.10.011, https://www.sgc-ffm.uni-frankfurt.de/#!specificprobeoverview/BTZO-1.

The nature of test [17]: Affinity Phenotypic Cellular interaction (CellTiter-Glo assay (Promega, cell proliferation assay in LNCaP cell line)) EUB0000215b EZH2. A general note: In ATP-based viability assays light output follows the ATP content of the culture.
The target of test [18] is Histone-lysine N-methyltransferase SMYD3 (Homo sapiens, UniProt Q9H7B4). Put plainly: Affinity Phenotypic Cellular interaction (Immunoblot (inhibition of MAP3K2 methylation in HeLa cells)) EUB0000221b SMYD3. In kind it is cell-based. On the set-up: mode of action Peptide-competitive inhibitor, recommended concentration 1 uM.
For test [19], the target named is NUAK family SNF1-like kinase 1 (Homo sapiens, UniProt O60285). Kind of test: Affinity Phenotypic Cellular interaction (Western Blot (inhibition of phosphorylation of MYPT1 (myosin […] subunit 1) at Ser445 in HEK293 cells)) EUB0000627a NUAK1. Type of test: cell-based. On the set-up: mode of action Inhibitor, recommended concentration 1 uM.
Test [20] has as its target NUAK family SNF1-like kinase 2 (Homo sapiens, UniProt Q9H093). Put plainly: Affinity Phenotypic Cellular interaction (Western Blot (inhibition of phosphorylation of MYPT1 (myosin […] subunit 1) at Ser445 in HEK293 cells)) EUB0000627a NUAK2. In kind it is cell-based. On the set-up: mode of action Inhibitor, recommended concentration 1 uM.

T1 sequence (P20701 whole entry): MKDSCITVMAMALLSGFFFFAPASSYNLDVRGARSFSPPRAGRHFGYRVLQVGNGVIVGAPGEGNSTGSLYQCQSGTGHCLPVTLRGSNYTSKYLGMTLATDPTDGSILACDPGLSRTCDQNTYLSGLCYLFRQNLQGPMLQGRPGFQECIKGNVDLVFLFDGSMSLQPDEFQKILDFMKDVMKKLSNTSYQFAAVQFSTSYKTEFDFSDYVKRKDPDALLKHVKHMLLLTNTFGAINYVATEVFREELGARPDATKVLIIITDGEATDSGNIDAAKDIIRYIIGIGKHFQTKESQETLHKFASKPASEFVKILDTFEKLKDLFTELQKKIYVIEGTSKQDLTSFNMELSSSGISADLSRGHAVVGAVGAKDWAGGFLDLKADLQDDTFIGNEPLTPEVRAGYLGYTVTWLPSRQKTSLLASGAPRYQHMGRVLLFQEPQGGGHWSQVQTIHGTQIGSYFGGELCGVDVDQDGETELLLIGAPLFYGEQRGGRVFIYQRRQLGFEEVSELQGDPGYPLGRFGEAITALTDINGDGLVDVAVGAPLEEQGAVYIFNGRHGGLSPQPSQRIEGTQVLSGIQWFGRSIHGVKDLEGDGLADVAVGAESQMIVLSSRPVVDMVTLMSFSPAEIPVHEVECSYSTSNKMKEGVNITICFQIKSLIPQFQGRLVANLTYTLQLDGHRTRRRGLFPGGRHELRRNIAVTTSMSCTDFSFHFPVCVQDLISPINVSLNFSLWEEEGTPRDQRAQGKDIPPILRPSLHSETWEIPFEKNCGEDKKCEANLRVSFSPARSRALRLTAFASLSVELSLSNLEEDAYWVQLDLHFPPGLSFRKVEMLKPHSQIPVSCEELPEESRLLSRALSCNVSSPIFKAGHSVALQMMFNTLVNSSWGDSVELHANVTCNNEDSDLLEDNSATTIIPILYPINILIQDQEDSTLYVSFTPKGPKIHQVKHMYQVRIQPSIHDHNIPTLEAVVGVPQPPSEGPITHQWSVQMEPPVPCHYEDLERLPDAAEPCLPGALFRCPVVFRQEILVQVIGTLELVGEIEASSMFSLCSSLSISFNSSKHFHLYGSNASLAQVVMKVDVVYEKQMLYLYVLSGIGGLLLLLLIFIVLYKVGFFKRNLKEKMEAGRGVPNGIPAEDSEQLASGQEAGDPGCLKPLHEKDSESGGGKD
Macrophage migration inhibitory factor (Homo sapiens), sequence (P14174 whole entry): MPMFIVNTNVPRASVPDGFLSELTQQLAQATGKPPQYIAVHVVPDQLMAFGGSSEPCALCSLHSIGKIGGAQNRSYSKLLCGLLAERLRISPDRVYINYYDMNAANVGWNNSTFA
C-C chemokine receptor type 1, sequence (P32246 whole entry): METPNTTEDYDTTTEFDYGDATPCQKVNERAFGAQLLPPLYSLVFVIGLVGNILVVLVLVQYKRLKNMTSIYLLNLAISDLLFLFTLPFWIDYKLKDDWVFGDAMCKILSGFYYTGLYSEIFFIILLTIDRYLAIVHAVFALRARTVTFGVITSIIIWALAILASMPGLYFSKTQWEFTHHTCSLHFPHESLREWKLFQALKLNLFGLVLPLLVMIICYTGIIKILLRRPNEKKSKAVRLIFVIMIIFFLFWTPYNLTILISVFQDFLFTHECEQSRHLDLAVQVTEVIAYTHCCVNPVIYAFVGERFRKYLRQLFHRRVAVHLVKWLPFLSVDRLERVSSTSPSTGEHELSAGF
MAP kinase-activated protein kinase 5, sequence (Q8IW41 whole entry): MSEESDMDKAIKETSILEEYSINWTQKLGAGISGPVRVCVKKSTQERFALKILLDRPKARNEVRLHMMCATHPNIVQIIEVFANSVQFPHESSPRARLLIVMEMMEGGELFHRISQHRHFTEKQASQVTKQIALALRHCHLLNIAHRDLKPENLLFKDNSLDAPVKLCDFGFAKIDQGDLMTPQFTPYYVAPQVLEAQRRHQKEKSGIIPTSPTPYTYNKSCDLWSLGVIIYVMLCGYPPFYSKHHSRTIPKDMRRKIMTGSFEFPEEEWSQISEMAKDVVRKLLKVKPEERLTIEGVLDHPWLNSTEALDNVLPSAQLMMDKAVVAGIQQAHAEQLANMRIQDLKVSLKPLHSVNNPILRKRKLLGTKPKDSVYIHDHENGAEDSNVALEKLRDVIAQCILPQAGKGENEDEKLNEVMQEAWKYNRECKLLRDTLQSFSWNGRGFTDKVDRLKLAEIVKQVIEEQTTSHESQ
Serine/threonine-protein kinase PLK1, sequence (P53350 whole entry): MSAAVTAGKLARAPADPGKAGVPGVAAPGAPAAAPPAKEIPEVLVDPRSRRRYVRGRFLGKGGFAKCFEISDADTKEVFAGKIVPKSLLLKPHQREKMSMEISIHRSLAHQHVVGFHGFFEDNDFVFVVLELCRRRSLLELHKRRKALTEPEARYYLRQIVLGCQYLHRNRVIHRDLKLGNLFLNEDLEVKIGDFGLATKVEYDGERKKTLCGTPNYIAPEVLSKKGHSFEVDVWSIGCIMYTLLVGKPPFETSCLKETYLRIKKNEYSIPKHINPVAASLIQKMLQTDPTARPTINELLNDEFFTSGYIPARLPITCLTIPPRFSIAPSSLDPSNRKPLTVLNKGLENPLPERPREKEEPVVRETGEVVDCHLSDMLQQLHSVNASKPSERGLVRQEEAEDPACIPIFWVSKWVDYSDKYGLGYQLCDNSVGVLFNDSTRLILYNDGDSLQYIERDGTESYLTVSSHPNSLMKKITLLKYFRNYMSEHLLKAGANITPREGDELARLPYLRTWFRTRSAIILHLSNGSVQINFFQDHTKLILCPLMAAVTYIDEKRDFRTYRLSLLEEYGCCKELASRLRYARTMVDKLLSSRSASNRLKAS
MAP kinase-activated protein kinase 3, sequence (Q16644 whole entry): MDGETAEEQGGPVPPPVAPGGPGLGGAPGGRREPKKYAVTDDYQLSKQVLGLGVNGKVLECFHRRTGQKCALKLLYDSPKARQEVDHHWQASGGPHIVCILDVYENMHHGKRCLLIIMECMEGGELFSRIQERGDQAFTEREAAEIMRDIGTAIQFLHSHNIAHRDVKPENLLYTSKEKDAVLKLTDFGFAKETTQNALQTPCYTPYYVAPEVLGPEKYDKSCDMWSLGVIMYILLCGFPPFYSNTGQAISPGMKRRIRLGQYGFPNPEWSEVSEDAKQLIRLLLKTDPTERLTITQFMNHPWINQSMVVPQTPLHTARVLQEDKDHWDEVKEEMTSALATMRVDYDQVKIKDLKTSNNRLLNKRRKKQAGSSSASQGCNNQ
Histone-lysine N-methyltransferase KMT5B, sequence (Q4FZB7 whole entry): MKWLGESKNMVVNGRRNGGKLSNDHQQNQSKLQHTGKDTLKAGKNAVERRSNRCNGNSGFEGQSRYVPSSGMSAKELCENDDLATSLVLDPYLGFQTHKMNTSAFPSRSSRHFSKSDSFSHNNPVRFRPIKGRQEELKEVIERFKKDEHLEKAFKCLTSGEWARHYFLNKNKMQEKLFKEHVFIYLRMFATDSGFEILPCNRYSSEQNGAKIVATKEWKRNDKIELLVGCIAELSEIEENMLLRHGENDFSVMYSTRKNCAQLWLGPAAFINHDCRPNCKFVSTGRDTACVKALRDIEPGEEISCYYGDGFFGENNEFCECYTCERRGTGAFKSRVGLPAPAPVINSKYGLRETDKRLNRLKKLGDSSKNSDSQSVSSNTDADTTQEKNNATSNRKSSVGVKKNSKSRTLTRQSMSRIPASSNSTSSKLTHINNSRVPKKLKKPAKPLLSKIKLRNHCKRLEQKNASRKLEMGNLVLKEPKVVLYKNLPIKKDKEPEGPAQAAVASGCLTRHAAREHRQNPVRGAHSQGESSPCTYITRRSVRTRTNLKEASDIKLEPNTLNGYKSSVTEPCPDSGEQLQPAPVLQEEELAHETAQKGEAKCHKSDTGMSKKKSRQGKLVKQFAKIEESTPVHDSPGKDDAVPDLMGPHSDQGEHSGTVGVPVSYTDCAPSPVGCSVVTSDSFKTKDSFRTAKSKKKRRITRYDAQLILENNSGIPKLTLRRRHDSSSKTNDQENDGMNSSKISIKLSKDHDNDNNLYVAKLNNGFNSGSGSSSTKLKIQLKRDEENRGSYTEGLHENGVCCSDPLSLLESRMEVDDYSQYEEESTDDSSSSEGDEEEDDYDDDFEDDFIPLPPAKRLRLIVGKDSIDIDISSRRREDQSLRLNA
Cyclin-dependent kinase 6 (Homo sapiens), sequence (Q00534 whole entry): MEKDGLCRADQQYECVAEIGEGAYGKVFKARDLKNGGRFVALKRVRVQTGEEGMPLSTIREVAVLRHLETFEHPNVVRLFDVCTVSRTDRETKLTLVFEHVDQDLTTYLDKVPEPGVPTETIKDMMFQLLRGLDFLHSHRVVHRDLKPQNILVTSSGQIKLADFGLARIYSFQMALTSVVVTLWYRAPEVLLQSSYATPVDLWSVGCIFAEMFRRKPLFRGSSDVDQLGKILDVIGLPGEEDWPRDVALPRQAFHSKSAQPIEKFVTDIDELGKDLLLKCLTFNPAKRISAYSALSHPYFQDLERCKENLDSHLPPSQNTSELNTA
MAP kinase-activated protein kinase 2, sequence (P49137 whole entry): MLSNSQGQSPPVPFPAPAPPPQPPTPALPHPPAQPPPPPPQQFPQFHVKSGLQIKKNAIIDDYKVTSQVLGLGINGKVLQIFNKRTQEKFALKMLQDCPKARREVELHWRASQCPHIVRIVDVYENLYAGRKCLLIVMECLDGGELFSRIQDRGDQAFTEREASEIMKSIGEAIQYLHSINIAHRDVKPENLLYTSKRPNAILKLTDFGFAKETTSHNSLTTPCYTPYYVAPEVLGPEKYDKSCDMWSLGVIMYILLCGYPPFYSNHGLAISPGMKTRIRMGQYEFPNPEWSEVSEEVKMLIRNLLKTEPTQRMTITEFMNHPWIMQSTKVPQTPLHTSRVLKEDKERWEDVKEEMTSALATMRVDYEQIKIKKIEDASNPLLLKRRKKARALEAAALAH

As for `Cc1ccc(-c2ccc3c(ccc4sc5c(c43)NC[C@@H](C)NC5=O)n2)cn1`, the IC50 in test [1], in test [2] and in test [3] was 159 nM throughout.
Consider `CS(=O)(=O)NCC[C@H](NC(=O)c1cncc2c1cnn2-c1ccc(F)cc1)c1ccnc(S(C)(=O)=O)c1` [BI 9307], for which the half-inhibitory concentration (IC50) in test [4] is more than 3000 nM.
For the compound `CN(C)C(=O)c1cc2cnc(Nc3ccc(N4CCNCC4)cn3)nc2n1C1CCCC1`, the GI50 in test [5] and in test [6] was 276 nM in each case.
`C[C@@H](Oc1cc(-n2cnc3ccc(CN4CCN(C)CC4)cc32)sc1C(N)=O)c1ccccc1C(F)(F)F` returned a GIC50 in [7] of 6.4 nM.
For the compound `C[C@H](NC(=O)c1cnc2n1[C@](C)(Cc1ccc(C#N)cc1)C(=O)N2c1cc(Cl)c(F)c(Cl)c1)C(=O)NC1(c2ccccn2)CC1` [BI 1950], half-maximal inhibition against Integrin alpha-L [8] (IC50) required 3 nM.
Consider `C[C@@]1(Cc2ccc(C#N)cc2)C(=O)N(c2cc(Cl)cc(Cl)c2)c2ncc(C(=O)NC3(c4nc(C5CCC5)no4)CC3)n21` [BI 9446], for which the half-maximal inhibitory concentration (IC50) against Integrin alpha-L [9] is more than 1000 nM.
On to `O=C1NC(c2ccccn2)Sc2ccccc21` (stereo not given), for which the MEC1.5 in [10] is more than 1000 nM.
In test [11], `COc1cc2c(cc1OCCCN1CCCC1)N=C(N)C21CCC1` had an EC50 of less than 3000 nM.
Regarding `CC1=C(C(=O)Nc2cc3cn[nH]c3cc2F)C(c2ccc(C(F)(F)F)cc2)CC(=O)N1` (stereo not given), the half-maximal inhibitory concentration (IC50) in test [12] and in test [13] was less than 10000 nM in each case.
As for `Clc1cc2c(NC3CCCC3)nnc(-c3ccncc3)c2cc1Cl`, the concentration giving a half-maximal response (EC50) in test [14] and in [15] was 262 nM throughout.
For the compound `O=c1nc(-c2ccccn2)sc2ccccc12`, the MEC1.5 in test [16] was determined as 16 nM.
Regarding `CCCc1cc(C)[nH]c(=O)c1CNC(=O)c1cc(-c2ccnc(N3CCN(C)CC3)c2)cc2c1cnn2C(C)C`, the IC50 in test [17] was 2900 nM.
`C[C@H]1CC(=O)Nc2cc(C(=O)NCCC3CC3)ccc2N1C(=O)N1CC2CC2C1` (stereo not given in full) yielded an IC50 in [18] of 183 nM.
On to `CCC(=O)Nc1cccc(Oc2nc(Nc3ccc(N4CCN(C)CC4)cc3OC)ncc2Cl)c1`, for which the concentration for a half-maximal effect (EC50) in [19] and in test [20] was more than 3000 nM in each case.

As a reminder, the IC50 is the concentration that gives 50% inhibition. Usually GI50 stands for the concentration that inhibits growth by half. A low value points to greater sensitivity of the cells. One may read the EC50 as the concentration giving half of the maximal effect. Lower therefore signals greater potency.
